The assay has as its target T1, human SARM1(50-724) (Homo sapiens, UniProt Q6SZW1).
T1 construct: 40 nM human SARM1(50-724)
T1 sequence (Q6SZW1 50-724): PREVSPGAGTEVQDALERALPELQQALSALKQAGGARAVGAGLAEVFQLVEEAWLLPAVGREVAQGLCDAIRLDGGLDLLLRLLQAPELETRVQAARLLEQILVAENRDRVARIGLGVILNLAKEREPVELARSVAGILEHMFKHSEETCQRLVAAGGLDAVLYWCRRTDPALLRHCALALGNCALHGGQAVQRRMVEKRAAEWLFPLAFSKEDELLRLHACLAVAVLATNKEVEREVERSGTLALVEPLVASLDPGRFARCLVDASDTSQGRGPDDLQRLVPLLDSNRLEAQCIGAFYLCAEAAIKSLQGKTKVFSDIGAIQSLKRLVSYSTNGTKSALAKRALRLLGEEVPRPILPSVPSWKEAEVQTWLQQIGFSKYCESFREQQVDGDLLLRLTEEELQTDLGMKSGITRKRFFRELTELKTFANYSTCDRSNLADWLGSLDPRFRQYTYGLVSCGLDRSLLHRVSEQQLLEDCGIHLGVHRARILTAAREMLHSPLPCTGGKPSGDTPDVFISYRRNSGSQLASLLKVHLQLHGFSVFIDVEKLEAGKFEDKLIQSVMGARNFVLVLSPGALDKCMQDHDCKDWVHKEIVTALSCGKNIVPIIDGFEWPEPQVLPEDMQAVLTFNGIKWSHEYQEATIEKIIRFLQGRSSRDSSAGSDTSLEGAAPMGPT
The experiment in a line: SARM1 NADase biochemical assay (HPLC peak areas of NAD and NAM). Conditions: for pIC50: dose-response, 1:3 serial dilution from 100 μM, 40 nM SARM1, 0.3 mM NMN, 20 μM NAD, 60 min rt.

Where [1] appears, read: 50 μM compound, NAD peak area, read-out: Avg NAD % inhibition at 50 μM.
Where [2] appears, read: 50 μM compound, NAM peak area, read-out: Avg NAM % inhibition at 50 μM.

pIC50: −log10 of the molar value. Read-outs that look alike come from different tables or passages of the source.

`[2H]C([2H])([2H])C(c1ccncc1)c1ccn(CC(F)(F)F)n1` (racemic) [Example 21, (rac)-4-(1-(1-(2,2,2-Trifluoroethyl)-1H-pyrazol-3-yl)ethyl-2,2,2-d3)pyridine]: the pIC50 (as a rule, the IC50 on a negative log10 scale, so that one unit is a factor of ten) is 5.00 to 6.00. Turning to `O=C(Nc1ccn(Cc2ccncc2)n1)c1ccccc1F` [Example 58, 2-Fluoro-N-(1-(pyridin-4-ylmethyl)-1H-pyrazol-3-yl)benzamide], the inhibition (as a rule, how much of the control response was suppressed) at 50 µM is, setting by setting: under setting [1], 0 to 50%; under setting [2], 0 to 50%. Turning to `O=C(CCc1ccc(Cl)cc1)Nc1ccn(Cc2ccncc2)n1` [Example 106, 3-(4-Chlorophenyl)-N-{1-[(pyridin-4-yl)methyl]-1H-pyrazol-3-yl}propanamide], the inhibition at 50 µM is, setting by setting: under setting [1], 0 to 50%; under setting [2], 0 to 50%. The molecule `FC(F)Cn1ccc(Cc2ccncc2)n1` [Example 10, 4-((1-(2,2-Difluoroethyl)-1H-pyrazol-3-yl)methyl)pyridine] had a pIC50 of 5.00 to 6.00. On the same count and under the same terms, with `CC(c1ccncc1)n1ccc(NC(=O)c2ccc3c(c2)OCO3)n1` (racemic) [Example 19, (rac)-N-(1-(1-(Pyridin-4-yl)ethyl)-1H-pyrazol-3-yl)benzo[d][1,3]dioxole-5-carboxamide] the figure was 5.00 to 6.00.

For “(S)—N-(2,2-Difluoroethyl)-1-(1-(pyridin-4-yl)ethyl)-1H-pyrazol-3-amine and (R)—N-(2,2-Difluoroethyl)-1-(1-(pyridin-4-yl)ethyl)-1H-pyrazol-3-amine [Example 8a]”, for the setting “50 μM compound, NAD peak area”, the “Avg NAD % inhibition at 50 μM” value is on record as “* (% Inhibition 0-50%)”. Besides, the “Avg NAM % inhibition at 50 μM” value (50 μM compound, NAM peak area) was “* (% Inhibition 0-50%)”. On to `FC(F)(F)Cc1ccn(Cc2ccncc2)n1` [Example 29, 4-((3-(2,2,2-Trifluoroethyl)-1H-pyrazol-1-yl)methyl)pyridine], for which the pIC50 was > 6.00. On the same count and under the same terms, with “(S)-2-((1-(1-(Pyridin-4-yl)ethyl)-1H-pyrazol-3-yl)amino)acetonitrile and (R)-2-((1-(1-(Pyridin-4-yl)ethyl)-1H-pyrazol-3-yl)amino)acetonitrile [Example 7]” the figure was 5.00 to 6.00. As for `O=C(CCc1ccccc1)Nc1ccn(Cc2ccncc2)n1` [Example 34, 3-Phenyl-N-(1-(pyridin-4-ylmethyl)-1H-pyrazol-3-yl)propanamide], the inhibition at 50 µM under setting [1] was in the range of 0 to 50% and the inhibition at 50 µM under setting [2] lay in the range of 0 to 50%.

Consider `O=C(Nc1ccn(Cc2ccncc2)n1)c1cccc(O)c1` [Example 46, 3-Hydroxy-N-(1-(pyridin-4-ylmethyl)-1H-pyrazol-3-yl)benzamide], for which the inhibition at 50 µM runs as follows: under setting [1], 0 to 50%; under setting [2], 0 to 50%. The molecule `CCC(c1ccncc1)n1ccc(NCC(F)(F)F)n1` (racemic) [Example 99, (rac)-1-(1-(Pyridin-4-yl)propyl)-N-(2,2,2-trifluoroethyl)-1H-pyrazol-3-amine] showed a pIC50 of 4.00 to 5.00.

Take `Cc1cc(C(=O)Nc2ccn(Cc3ccncc3)n2)cs1` [Example 67, 5-Methyl-N-(1-(pyridin-4-ylmethyl)-1H-pyrazol-3-yl)thiophene-3-carboxamide]: the inhibition at 50 µM under setting [1] lay in the range of 51 to 100% and the inhibition at 50 µM under setting [2] lay in the range of 0 to 50%. “(S)-2-(1-(1-(Pyridin-4-yl)ethyl)-1H-pyrazol-3-yl)acetonitrile and (R)-2-(1-(1-(Pyridin-4-yl)ethyl)-1H-pyrazol-3-yl)acetonitrile [Example 27]”: the pIC50 was 5.00 to 6.00. Same read-out and setting: then `FC(F)(F)Cn1ccc(Cc2ccncc2)n1` [Example 20, 4-((1-(2,2,2-Trifluoroethyl)-1H-pyrazol-3-yl)methyl)pyridine], with 5.00 to 6.00. With `O=C(Nc1ccn(Cc2ccncc2)n1)c1ccccn1` [Example 61, N-(1-(Pyridin-4-ylmethyl)-1H-pyrazol-3-yl)picolinamide], the inhibition at 50 µM is 0 to 50% under setting [1] and 0 to 50% under setting [2].

Turning to `c1cc(Cn2ccc(NCC3CCC3)n2)ccn1` [Example 95, N-(Cyclobutylmethyl)-1-(pyridin-4-ylmethyl)-1H-pyrazol-3-amine], the inhibition at 50 µM reads like this: under setting [1], 0 to 50%; under setting [2], 0 to 50%. On to `CC(c1ccn(CC(F)(F)F)n1)c1ccncc1Cl` (racemic) [Example 112, (rac)-3-Chloro-4-(1-(1-(2,2,2-trifluoroethyl)-1H-pyrazol-3-yl)ethyl)pyridine], for which the pIC50 is 5.00 to 6.00. As for `O=C(Nc1ccn(Cc2ccncc2)n1)c1ccccc1Cl` [Example 53, 2-Chloro-N-(1-(pyridin-4-ylmethyl)-1H-pyrazol-3-yl)benzamide], the inhibition at 50 µM lay within 0 to 50% under setting [1] and 0 to 50% under setting [2].

`C[C@H](c1ccncc1)n1ccc(NCC(F)(F)F)n1` [Example 89, (R)-1-(1-(Pyridin-4-yl)ethyl)-N-(2,2,2-trifluoroethyl)-1H-pyrazol-3-amine] had a pIC50 of 4.00 to 5.00. Still for that read-out and setting: then `CC(C)Cn1ccc(C(C)c2ccncc2)n1` (racemic) [Example 11, (rac)-4-(1-(1-Isobutyl-1H-pyrazol-3-yl)ethyl)pyridine], with 5.00 to 6.00. As for `O=C(Nc1ccn(Cc2ccncc2)n1)c1ccc2c(c1)CCO2` [Example 39, N-(1-(Pyridin-4-ylmethyl)-1H-pyrazol-3-yl)-2,3-dihydrobenzofuran-5-carboxamide], the inhibition at 50 µM runs as follows: under setting [1], 0 to 50%; under setting [2], 0 to 50%.

With `O=C(Nc1ccn(Cc2ccncc2)n1)c1ccc(O)c(O)c1` [Example 73, 3,4-Dihydroxy-N-(1-(pyridin-4-ylmethyl)-1H-pyrazol-3-yl)benzamide], under setting [1], the inhibition at 50 µM is 51 to 100%. For the molecule `CC(c1ccncc1)n1ccc(CC(F)F)n1` (racemic) [Example 107, (rac)-4-{1-[3-(2,2-Difluoroethyl)-1H-pyrazol-1-yl]ethyl}pyridine], the pIC50 is 5.00 to 6.00. For the molecule `N#Cc1ccc(C(=O)Nc2ccn(Cc3ccncc3)n2)cc1` [Example 52, 4-Cyano-N-(1-(pyridin-4-ylmethyl)-1H-pyrazol-3-yl)benzamide], the inhibition at 50 µM by setting is: under setting [1], 0 to 50%; under setting [2], 0 to 50%.

As to `[2H]C(C)(c1ccncc1)c1ccn(CC(F)(F)F)n1` (racemic) [Example 82, (rac)-4-(1-(1-(2,2,2-Trifluoroethyl)-1H-pyrazol-3-yl)ethyl-1-d)pyridine], the pIC50 is > 6.00. Still for that read-out and setting: then `CC(c1ccncc1)c1ccn(CC(F)(F)F)n1` (racemic) [Example 24, (rac)-4-(1-(1-(2,2,2-Trifluoroethyl)-1H-pyrazol-3-yl)ethyl)pyridine], with > 6.00; and `CC(c1ccncc1)c1ccn(Cc2ccccc2)n1` (racemic) [Example 92, (rac)-4-(1-(1-Benzyl-1H-pyrazol-3-yl)ethyl)pyridine], with 4.00 to 5.00. On the same count and under the same terms, then “(R)-3-Chloro-4-(1-(1-(2,2,2-trifluoroethyl)-1H-pyrazol-3-yl)ethyl)pyridine and (S)-3-Chloro-4-(1-(1-(2,2,2-trifluoroethyl)-1H-pyrazol-3-yl)ethyl)pyridine [Example 113]”, with 5.00 to 6.00.

For `[2H]C([2H])([2H])C([2H])(c1ccncc1)c1ccn(CC(F)(F)F)n1` (racemic) [Example 80, (rac)-4-(1-(1-(2,2,2-Trifluoroethyl)-1H-pyrazol-3-yl)ethyl-1,2,2,2-d4)pyridine], the pIC50 is > 6.00. Still for that read-out and setting: with “(R)-2-((1-(1-(Pyridin-4-yl)ethyl)-1H-pyrazol-3-yl)amino)acetonitrile and (S)-2-((1-(1-(pyridin-4-yl)ethyl)-1H-pyrazol-3-yl)amino)acetonitrile [Example 6]” the figure was 5.00 to 6.00. Consider `CC(c1ccncc1)n1ccc(NC(C)C(F)(F)F)n1` (racemic) [Example 100, (rac)-1-(1-(Pyridin-4-yl)ethyl)-N-(1,1,1-trifluoropropan-2-yl)-1H-pyrazol-3-amine], for which the pIC50 is 5.00 to 6.00. With `O=C(Nc1ccn(Cc2ccncc2)n1)c1ccc2c(c1)OCCO2` [Example 37, N-(1-(Pyridin-4-ylmethyl)-1H-pyrazol-3-yl)-2,3-dihydrobenzo[b][1,4]dioxine-6-carboxamide], the inhibition at 50 µM by setting is: under setting [1], 0 to 50%; under setting [2], 0 to 50%.

Turning to `CC(c1ccncc1)n1ccc(Nc2nccs2)n1` (racemic) [Example 1, (rac)-N-(1-(1-(Pyridin-4-yl)ethyl)-1H-pyrazol-3-yl)thiazol-2-amine], the pIC50 was > 6.00.

Consider `N#CCn1ccc(Cc2ccncc2)n1` [Example 9, 2-(3-(Pyridin-4-ylmethyl)-1H-pyrazol-1-yl)acetonitrile], for which the pIC50 is 5.00 to 6.00. With `CC(c1ccncc1)n1ccc(NCC#N)n1` (racemic) [Example 5, (rac)-2-((1-(1-(Pyridin-4-yl)ethyl)-1H-pyrazol-3-yl)amino)acetonitrile], the pIC50 was 5.00 to 6.00. `FC(F)(F)C(CNc1ccn(Cc2ccncc2)n1)C(F)(F)F` [Example 16, 1-(Pyridin-4-ylmethyl)-N-(3,3,3-trifluoro-2-(trifluoromethyl)propyl)-1H-pyrazol-3-amine] had a pIC50 of 5.00 to 6.00.

Source of the values: US11945796B2, “Substituted pyridine derivatives as SARM1 inhibitors” (Nura Bio, Inc., priority 2020, dated 2024).
